Measurements taken from patent US20220213156A1, “Peptides for use in therapy or prophylaxis of Herpesviridae-infections” (priority 2019, published 2022).
Residues, ends and D or L forms follow the SMILES beside them.

Columns and labels:
[1] = test system: TB40-BACKL7-UL32EGFP-UL 100mCherry; test: Attachment of fluorescently tagged viral particles to HFF; type: cell-based, Human Cytomegalovirus; conditions: HFF preincubated with peptide 1 h, 6 h after infection, data not shown
Procedure: In additional experiments, […] (encoding for pp150) was GFP (green fluorescence protein)-tagged, UL100 (encoding for gM) was mCherry-tagged. This allowed discrimination between enveloped particles, which were EGFP and mCherry-positive and appeared yellow, and non-enveloped particles, which were only EGFP-positive and appeared green.
HFF were preincubated with peptide in the corresponding concentration 1 h at 37° C. and then infected TB40-BACKL7-UL32EGFP-UL 100mCherry. After 6 h of incubation, cells were fixed and stained with DAPI.

[2] = test system: HCMV TB40/E-ΔUL16-eGFP; test: Infection assay: HFF infected with TB40E-ΔUL16-EGFP and treated with HD5-derived peptides (screening, GFP+/DAPI+); type: cell-based, Human Cytomegalovirus; conditions: 75 μM peptide, MOI 0,5, 40 h, compared to other tested peptides
Procedure: For the infection assays, the cells were sown in 96-well plates. Human foreskin fibroblasts (HFF) and ARPE-19 cells (Adult Retinal Pigment Epithelial cell line-19) were seeded with 10 000 cells in 200 μl medium per well, macrophages with 20 000 cells in 200 μl medium per well and THP with 50 000 cells in 200 μl per well. The cells were incubated overnight at 37° C. and 5% CO2 and treated the following day. A medium change to P/S-free medium was performed to avoid interaction between the antibiotics used and the peptide sequences. Afterwards the corresponding peptides were added in different concentrations and immediately afterwards the virus, the final volume was 100 μl per well. The virus of the strain TB40/E-ΔUL16-eGFP was used. TB40-ΔUL16-eGFP is a derivative of the strain TB40, in which the majority of the open reading frame UL16 has been replaced by the open reading frame of eGFP, essentially as described in detail for a homologous mutant of strain AD169 (Tischer et al., “Two-step red-mediated recombination for versatile high-efficiency markerless DNA manipulation in Escherichia coli”, Biotechniques, (2006), 40(2):191-7). […] The required volume of the virus stock was calculated using the titer according to the following formula: […]

In the case of `C[C@H](N)C(=O)N[C@H](C(=O)N[C@@H](CS)C(=O)N[C@@H](Cc1ccc(O)cc1)C(=O)N[C@@H](CS)C(=O)N[C@@H](CCCNC(=N)N)C(=O)N[C@H](C(=O)NCC(=O)N[C@@H](CCCNC(=N)N)C(=O)O)[C@@H](C)O)[C@@H](C)O` [HD5 (1-9), ATCYCRTGR] (H-ATCYCRTGR-OH; N-terminus and C-terminus assumed), the “attachment of viral particles” value [1] is reported as “blocks the attachment of viral particles” and the “antiviral effect (infection rate GFP+/DAPI+)” value [2] is reported as “excellent antiviral effect”.
